Laboratory results as given in PubChem BioAssay (NCI).
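Where inhibition never reached the appropriate level, the endpoint shown equals the highest concentration tested. Otherwise, values were interpolated linearly from a five-concentration, 48-hour dose response in 96-well plates. TGI: concentration producing complete growth inhibition.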

Assays:
Assay in all cases: NCI-60 cell line screen, 48 h
[1] = system: A498 renal
[2] = system: ACHN renal
[3] = system: COLO 205 colon
[4] = system: HCT-15 colon
[5] = system: HL-60(TB) leukemia
[6] = system: HOP-92 NSCLC
[7] = system: HT29 colon
[8] = system: IGROV1 ovarian
[9] = system: MDA-MB-231 breast
[10] = system: MOLT-4 leukemia
[11] = system: NCI-H23 lung
[12] = system: RPMI-8226 leukemia
[13] = system: SK-MEL-5 melanoma
[14] = system: SK-OV-3 ovarian
[15] = system: SNB-75 CNS
[16] = system: SR leukemia
[17] = system: T-47D breast
[18] = system: U251 CNS
[19] = system: UO-31 renal

Row | Structure (SMILES) | TGI [1] [µM] | TGI [2] [µM] | TGI [3] [µM] | TGI [4] [µM] | TGI [5] [µM] | TGI [6] [µM] | TGI [7] [µM] | TGI [8] [µM] | TGI [9] [µM] | TGI [10] [µM] | TGI [11] [µM] | TGI [12] [µM] | TGI [13] [µM] | TGI [14] [µM] | TGI [15] [µM] | TGI [16] [µM] | TGI [17] [µM] | TGI [18] [µM] | TGI [19] [µM]
1 | CC(C)/C(Cl)=N/OC(=O)Nc1cccc(C(F)(F)F)c1 | 37.1 | 3.06 | 3.46 | 3.39 | 2.22 | 3.33 | 10.6 | 26.6 | 17 | 4.42 | 31.3 | 3.69 | 21.3 | 31.7 | 21.2 | 3.12 | 14.1 | 31.3 | 22.9
2 | Cc1cccc(NC(=S)Nc2ccc([N+](=O)[O-])cc2)n1 | > 100 | > 100 | > 100 | > 100 | > 100 | > 100 | > 100 | > 100 | > 100 | > 100 | > 100 | > 100 | > 100 | > 100 | > 100 | > 100 | > 100 | > 100 | > 100
3 | COc1ccc(C2=Nn3c(nc4sc(C)c(C)c4c3=O)SC2)cc1 | > 100 | > 100 | > 100 | > 100 | > 100 | > 100 | > 100 | > 100 | > 100 | > 100 | > 100 | > 100 | > 100 | > 100 | > 100 | > 100 | > 100 | > 100 | > 100
4 | CCN(CC)C(=S)SNc1ccc(S(N)(=O)=O)cc1 | > 100 | > 100 | > 100 | > 100 | > 100 | > 100 | > 54.6 | > 100 | > 100 | > 100 | > 100 | > 78.9 | > 100 | > 100 | > 100 | > 85.6 | > 100 | > 100 | > 100
5 | O=C(Nc1cccc(NC(=O)C(=O)C2CCC3=C(Sc4ccccc4N3)C2=O)n1)C(=O)C1CCC2=C(Sc3ccccc3N2)C1=O (configuration not stated) | > 100 | > 100 | > 100 | > 100 | > 100 | > 100 | > 100 | > 100 | > 100 | > 100 | > 100 | > 100 | > 100 | > 100 | 70.2 | > 100 | > 100 | > 100 | > 100
6 | COc1ccc2c(c1)CCN=C2Cc1ccccc1CCCl | > 100 | 79.2 | 40 | > 100 | 48.6 | > 100 | 55 | > 100 | 44.1 | > 100 | 81.8 | 46.7 | 36.6 | > 100 | > 100 | > 100 | > 100 | > 100 | 43.9
7 | Cc1cc(=O)oc2cc(SC(=O)N(C)C)ccc12 | > 100 | > 100 | > 100 | > 100 | > 100 | > 100 | > 100 | > 100 | > 100 | > 100 | > 100 | > 100 | > 100 | > 100 | > 100 | > 100 | > 100 | > 100 | > 100
8 | CCCc1cc(=O)oc2c(C=O)c(O)cc(O)c12 | 40.6 | 86.7 | 40.8 | 73.4 | 42.7 | 45.8 | 64.5 | > 100 | 58.2 | 56.5 | 48 | 66.5 | 37.8 | 86.9 | 47.4 | 58.1 | 74.9 | 55.7 | 60.2
9 | O=C(NO)c1ccc(OCc2cccc(Cl)c2)cc1 | 20 | 25 | 51.7 | 29.9 | 20.8 | 51.4 | 25.6 | 23.3 | 43.2 | > 45.9 | 20.9 | > 58.9 | > 100 | 66.1 | > 70.2 | > 28.5 | > 61.5 | > 60.5 | 35.6
10 | CN(C)C(=S)N1C(=S)N(c2ccccc2)C(=Nc2ccccc2)C1=Nc1ccccc1 | > 100 | > 100 | > 100 | > 100 | > 100 | > 100 | > 100 | > 100 | > 100 | > 100 | > 100 | > 100 | > 100 | > 100 | > 100 | > 100 | > 100 | > 100 | > 100
11 | CC(C)(Br)C(Br)CCC(=CCBr)CBr (mixture of isomers) | 44.6 | 21.6 | 10.7 | 5.98 | 2.15 | 13.3 | 9.16 | 8.9 | 26.3 | 6.66 | 12.1 | 4.83 | 12.4 | 36.4 | 10.9 | 4.69 | 8.53 | 8.26 | 27.5
12 | COC(=O)C(Cc1ccccc1)NC(=O)C(CCC(=O)OCc1ccccc1)NC(=O)OC(C)(C)C (configuration not stated) | > 100 | > 100 | > 100 | > 100 | > 100 | > 100 | > 100 | > 100 | > 100 | > 100 | > 100 | > 100 | > 100 | > 100 | > 100 | > 100 | > 100 | > 100 | > 100
13 | O=C(NCCc1ccccc1)[C@H]1CCCC[C@@H]1CCO | > 100 | > 100 | > 100 | > 100 | > 100 | > 100 | > 100 | > 100 | > 100 | > 100 | > 100 | > 100 | > 100 | > 100 | > 100 | > 100 | > 100 | > 100 | > 100
